Measured values as given in ChEMBL document CHEMBL1137653, “First report of the emergence of CTX-M-type extended-spectrum beta-lactamases (ESBLs) as the predominant ESBL isolated in a U.S. health care system” (2007).

Experiments:
Assay type in all cases: functional
Klebsiella pneumoniae = experiment: Antimicrobial activity against CTX-M ESBL producing isolate of Klebsiella pneumoniae at 30 ug by double-disk diffusion method; conditions: read-out: DIZ
Escherichia coli [1] = experiment: Antimicrobial activity against non-CTX-M ESBL producing isolate of Escherichia coli by double-disk diffusion method
Klebsiella oxytoca = experiment: Antimicrobial activity against CTX-M ESBL producing isolate of Klebsiella oxytoca at 30 ug by double-disk diffusion method; conditions: read-out: DIZ
Escherichia coli [2] = experiment: Antimicrobial activity against CTX-M ESBL producing isolate of Escherichia coli at 30 ug by double-disk diffusion method; conditions: read-out: DIZ

| Structure (SMILES) | zone of inhibition at 30 µg/disc (Klebsiella pneumoniae) [mm] | diameter of the inhibition zone (DIZ) (Escherichia coli [1]) [mm] | zone of inhibition at 30 µg/disc (Klebsiella oxytoca) [mm] | zone of inhibition at 30 µg/disc (Escherichia coli [2]) [mm] |
| --- | --- | --- | --- | --- |
| CC(C)(O/N=C(\C(=O)N[C@@H]1C(=O)N2C(C(=O)[O-])=C(C[n+]3ccccc3)CS[C@H]12)c1csc(N)n1)C(=O)O [CEFTAZIDIME] | 9.8 | 17.3 | 9.2 | 15.9 |
| CO/N=C(\C(=O)N[C@@H]1C(=O)N2C(C(=O)O)=C(COC(C)=O)CS[C@H]12)c1csc(N)n1 [CEFOTAXIME] | 10.8 | 21 | 16.8 | 8.8 |
